Assay results from US20040166575A1, “Inosine producing bacterium belonging to the genus Bacillus and method for producing inosine” (priority 2003, published 2004).
Where “and” joins values, the source holds several entries; their conditions need not be identical. Equal values may be shown once.

Legend:
[1] = system: 6-ethoxypurine-resistant strain EP1 (AJ13937); assay: Assay for degree of 6-ethoxypurine resistance: colony growth on minimal medium plate, EP1 strain; format: cell-based, Bacillus subtilis; details: for Relative growth degree / Diameter of colony: EP1; for Relative growth degree: colony diameter with 2000 mg/L 6-ethoxypurine / without ×100; for Diameter of colony: minimal medium plate containing 6-ethoxypurine (2000 μg/mL)
[2] = system: 6-ethoxypurine-resistant strain EP2; assay: Assay for degree of 6-ethoxypurine resistance: colony growth on minimal medium plate, EP2 strain; format: cell-based, Bacillus subtilis; details: for Relative growth degree / Diameter of colony: EP2; for Relative growth degree: colony diameter with 2000 mg/L 6-ethoxypurine / without ×100; for Diameter of colony: minimal medium plate containing 6-ethoxypurine (2000 μg/mL)
Procedure: Relative growth degree (%)=[colony diameter (mm) observed in the medium containing 6-ethoxypurine]/[colony diameter (mm) observed in the medium not containing 6-ethoxypurine]×100
The Bacillus subtilis recombinant strain KMBS16 deficient in the purine operon repressor gene (purR), succinyl-AMP synthase gene (purA) and purine nucleoside phosphorylase gene (deoD) was treated with 400 μg/ml of nitrosoguanidine (NTG) at 37° C. for 30 minutes. Then, the NTG-treated cell suspension was spread on a minimal medium (20 g/L of glucose, 5 g/L of ammonium chloride, 4 g/L of potassium dihydrogenphosphate, 0.01 g/L of ferrous sulfate, 0.01 g/L of manganese sulfate, 0.5 g/L of sodium citrate, 1.0 g/L of L-glutamic acid, 0.1 g/L of adenine, 50 mg/L of tryptophan, pH 7.0) plate containing 2000 mg/L of 6-ethoxypurine, and the cells were cultured at 37° C. for 24 hours. […] The EP1 strain was given a private number of AJ13937. This strain was deposited at the independent administrative agency, National Institute of Advanced Industrial Science and Technology, International Patent Organism Depositary (Tsukuba Central 6, 1-1, Higashi 1-Chome, Tsukuba-shi, Ibaraki-ken, 305-8566, Japan) on Dec. 25, 2001 and received an accession number of FERM P-18665. Then, it was transferred to an international deposit under the provisions of the Budapest Treaty on Jan. 14, 2004, and received an accession number of FERM BP-08595.
Degree of 6-ethoxypurine resistance of the mutant strain obtained as described above was examined in detail. The parent strain and the mutant strain were adenine auxotrophic, and the drug used was a purine analogue. Therefore, the amount of adenine added to the minimal medium was limited to the required minimum level (2 mg/L in this example).
The 6-ethoxypurine-resistant strains (EP1 strain and EP2 strain) and the parent strain KMBS16 were each inoculated into the minimum liquid medium and cultured overnight at 34° C. The cells were separated from the culture broth by centrifugation, washed three times with the minimal medium and suspended again in the same medium. The suspension was appropriately diluted with the same medium and spread on a minimal medium plate and a minimal medium plate containing 2000 mg/L of 6-ethoxypurine, and the cells were cultured at 34° C. […] The culture was continued even thereafter, and diameters of several single colonies were measured after […] to 66 hours. An average of colony diameters was calculated for each strain, and the relative growth degree was calculated according to the aforementioned equation.
In the tables, the symbol “−” means that no colony could be confirmed, and the symbol “±” means that since the colonies were indefinite, the diameters could not be measured.

[3] = system: Bacillus subtilis recombinant strain KMBS16 (purR, purA, deoD deficient); assay: Assay for degree of 6-ethoxypurine resistance: colony growth on minimal medium plate, parent strain; format: cell-based; details: for Relative growth degree / Diameter of colony: KMBS16; for Relative growth degree: colony diameter with 2000 mg/L 6-ethoxypurine / without ×100; for Diameter of colony: minimal medium plate containing 6-ethoxypurine (2000 μg/mL)

`CCOc1ncnc2nc[nH]c12` [6-ethoxypurine] was tested, and the Relative growth degree ([1]; 0 hr) was 0%, the Relative growth degree ([1]; 42 hr) was 80.0% and 100.0% and the Relative growth degree ([1]; 45 hr) was 83.3%. The Relative growth degree ([1]; 48 hr) was 80.0%, the Relative growth degree ([1]; 52 hr) was 100.0% and the Diameter of colony ([1]; 34° C., 28 hr) was “±”. For the same compound, the Diameter of colony ([1]; 34° C., 42 hr) was 1.00 mm and 0.80 mm, the Diameter of colony ([1]; 34° C., 45 hr) was 1.20 mm and 1.00 mm and the Diameter of colony ([1]; 34° C., 48 hr) was 1.50 mm and 1.20 mm. For the same compound, the Diameter of colony ([1]; 34° C., 52 hr) was 1.50 mm, the Diameter of colony ([1]; 34° C., 66 hr) was 2.00 mm and 2.50 mm and the “colony formation after 24 hours” value ([1]; EP1 strain, minimal medium plate containing 2000 mg/L of 6-ethoxypurine, 34° C., 24 hours) was “minute colonies were confirmed”. The Relative growth degree ([2]; 0 hr) was 0%, the Relative growth degree ([2]; 42 hr) was 100.0% and the Diameter of colony ([2]; 34° C., 28 hr) was “±”. It also gave a Diameter of colony ([2]; 34° C., 42 hr) of 1.00 mm, a Diameter of colony ([2]; 34° C., 45 hr) of 1.20 mm and a Diameter of colony ([2]; 34° C., 48 hr) of 1.50 mm. For the same compound, the Diameter of colony ([2]; 34° C., 52 hr) was 1.50 mm, the Diameter of colony ([2]; 34° C., 66 hr) was 2.00 mm and the “colony formation after 24 hours” value ([2]; EP2 strain, minimal medium plate containing 2000 mg/L of 6-ethoxypurine, 34° C., 24 hours) was “minute colonies were confirmed”. The Relative growth degree ([3]; 0 hr) was 0%, the Relative growth degree ([3]; 42 hr) was 50.0% and 40.0% and the Relative growth degree ([3]; 45 hr) was 58.3% and 41.7%. The Relative growth degree ([3]; 48 hr) was 66.7% and 50.0%, the Relative growth degree ([3]; 52 hr) was 66.7% and the Relative growth degree ([3]; 66 hr) was 62.5% and 50.0%. The Diameter of colony ([3]; 34° C., 28 hr) was “−”, the Diameter of colony ([3]; 34° C., 42 hr) was 0.50 mm and 0.40 mm and the Diameter of colony ([3]; 34° C., 45 hr) was 0.70 mm and 0.50 mm. For the same compound, the Diameter of colony ([3]; 34° C., 48 hr) was 1.00 mm and 0.75 mm, the Diameter of colony ([3]; 34° C., 52 hr) was 1.00 mm and the Diameter of colony ([3]; 34° C., 66 hr) was 1.25 mm and 1.00 mm. The “colony formation after 24 hours” value ([3]; parent strain KMBS16, minimal medium plate containing 2000 mg/L of 6-ethoxypurine, 34° C., 24 hours) was “no colony was confirmed”.
